According to US6737383B1, “Herbicidal oxadiazolidines” (priority 1999, dated 2004):

What was measured:
cocklebur = test: Test B pre/postemergence cocklebur; assay type: in vivo, Xanthium strumarium
Procedure, shortened: (§1)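 Test chemicals in a non-phytotoxic solvent mixture with surfactant were sprayed preemergence onto planted seeds and postemergence onto plants 2 to 18 cm tall (1- to 4-leaf stage). After twelve to sixteen days in a greenhouse, injury was visually rated against untreated controls from 0 (no effect) to 10 (complete control).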

wild oat = test: Test B pre/postemergence wild oat; assay type: in vivo, Avena fatua
Procedure, shortened: as §1

corn = test: Test B pre/postemergence corn; assay type: in vivo, Zea mays
Procedure, shortened: as §1

giant foxtail = test: Test B pre/postemergence giant foxtail; assay type: in vivo, Setaria faberii
Procedure, shortened: as §1

duck salad = test: Test B flood test duck salad; assay type: in vivo, Heteranthera limosa
Procedure, shortened: (§2)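 Flood test on plants grown to the 2-leaf stage; treated plants kept in greenhouse twelve to sixteen days, then visually rated against controls on a 0 (no effect) to 10 (complete control) scale.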

pigweed = test: Test B pre/postemergence pigweed; assay type: in vivo, Amaranthus retroflexus
Procedure, shortened: as §1

rape = test: Test B pre/postemergence rape; assay type: in vivo, Brassica napus
Procedure, shortened: as §1

morningglory = test: Test B pre/postemergence morningglory; assay type: in vivo, Ipomoea hederacea
Procedure, shortened: as §1

purple nutsedge = test: Test B pre/postemergence purple nutsedge; assay type: in vivo, Cyperus rotundus
Procedure, shortened: as §1

surinam grass = test: Test B pre/postemergence surinam grass; assay type: in vivo, Brachiaria decumbens; conditions: for Plant response rating, B. signalgrass: Postemergence; for B. signalgrass plant response rating: Preemergence
Procedure, shortened: as §1

bamyardgrass = test: Test B flood test barnyardgrass; assay type: in vivo, Echinochloa crus-galli
Procedure, shortened: as §2

blackgrass = test: Test B pre/postemergence blackgrass; assay type: in vivo, Alopecurus myosuroides
Procedure, shortened: as §1

smallflower flatsedge = test: Test B flood test smallflower flatsedge; assay type: in vivo, Cyperus difformis
Procedure, shortened: as §2

rice = test: Test B flood test rice; assay type: in vivo, Oryza sativa
Procedure, shortened: as §2

wheat = test: Test B pre/postemergence wheat; assay type: in vivo, Triticum aestivum
Procedure, shortened: as §1

soybean = test: Test B pre/postemergence soybean; assay type: in vivo, Glycine max
Procedure, shortened: as §1

crabgrass = test: Test B pre/postemergence crabgrass; assay type: in vivo, Digitaria sanguinalis
Procedure, shortened: as §1

sugar beet = test: Test B pre/postemergence sugar beet; assay type: in vivo, Beta vulgaris
Procedure, shortened: as §1

velvetleaf = test: Test B pre/postemergence velvetleaf; assay type: in vivo, Abutilon theophrasti
Procedure, shortened: as §1

[1] = Postemergence, Rate 62 g/ha, scale 0 to 10, 0 is no effect, 10 is complete control
[2] = Postemergence, Rate 125 g/ha, scale of 0 to 10 where 0 is no effect and 10 is complete control
[3] = Postemergence, Rate 250 g/ha, scale of 0 to 10, 0 is no effect, 10 is complete control
[4] = Postemergence, Rate 500 g/ha, scale of 0 to 10 where 0 is no effect and 10 is complete control
[5] = Preemergence, Rate 62 g/ha, scale 0 to 10 (0 no effect, 10 complete control)
[6] = Preemergence, Rate 125 g/ha, scale of 0 to 10 where 0 is no effect and 10 is complete control
[7] = Preemergence, Rate 500 g/ha, scale of 0 to 10 where 0 is no effect and 10 is complete control
[8] = Rate 62 g/ha, flood test species, Pre-emergence, visual evaluation after twelve to sixteen days
[9] = Rate 125 g/ha, under heading Pre-emergence, flood test species, visual evaluation after twelve to sixteen days
[10] = Rate 250 g/ha, Pre-emergence (flood test species), scale 0 to 10, 0 is no effect, 10 is complete control
[11] = Rate 500 g/ha, Pre-emergence section of Table B, 0 to 10 scale (0 no effect, 10 complete control)
[12] = Rate 125 g/ha, scale of 0 to 10 where 0 is no effect and 10 is complete control
[13] = Rate 500 g/ha, scale of 0 to 10 where 0 is no effect and 10 is complete control

C=C(Cl)Cn1c(=O)on(C(=O)N(c2ccccc2)C(C)C)c1=O [Compound 608]
3: Plant response rating, Wild oats (wild oat; [1]) | Wild oats plant response rating (wild oat; [6]) | Plant response rating, Redroot pigweed (pigweed; [1]) | Plant response rating, B. signalgrass (surinam grass; Rate 62 g/ha, scale 0 to 10, 0 is no effect, 10 is complete control) | Plant response rating, Soybean (soybean; [1]) | Plant response rating, Crabgrass (crabgrass; [1]) | Plant response rating, Crabgrass (crabgrass; [2])
0: Plant response rating, Cocklebur (cocklebur; [1]) | Plant response rating, Cocklebur (cocklebur; [2]) | Cocklebur plant response rating (cocklebur; [3]) | Plant response rating, Cocklebur (cocklebur; [4]) | Cocklebur plant response rating (cocklebur; [5]) | Cocklebur plant response rating (cocklebur; [6]) | Cocklebur plant response rating (0 to 10 scale) (cocklebur; Preemergence, Rate 250 g/ha) | Plant response rating, Cocklebur (cocklebur; [7]) | Wild oats plant response rating (wild oat; [5]) | Plant response rating, Corn (corn; [1]) | Plant response rating, Corn (corn; [2]) | Corn plant response rating (corn; [3]) | Plant response rating, Corn (corn; [4]) | Corn plant response rating (corn; [5]) | Corn plant response rating (corn; [6]) | Corn plant response rating (0 to 10 scale) (corn; Preemergence, Rate 250 g/ha) | Plant response rating, Ducksalad (0 to 10 scale, 0 is no effect, 10 is complete control) (duck salad; [8]) | Ducksalad plant response rating (0 to 10 scale, 0 is no effect, 10 is complete control) (duck salad; [9]) | Ducksalad plant response rating (duck salad; [10]) | Ducksalad plant response rating (duck salad; [11]) | Plant response rating, Morningglory (morningglory; [1]) | Morningglory plant response rating (morningglory; [5]) | Morningglory plant response rating (morningglory; [6]) | Plant response rating, Nutsedge (purple nutsedge; [1]) | Plant response rating, Nutsedge (purple nutsedge; [2]) | Nutsedge plant response rating (purple nutsedge; [3]) | Nutsedge plant response rating (purple nutsedge; [6]) | Plant response rating, Nutsedge (purple nutsedge; [7]) | Plant response rating, Barnyardgrass (0 to 10 scale, 0 is no effect, 10 is complete control) (bamyardgrass; [8]) | Barnyardgrass plant response rating (0 to 10 scale, 0 is no effect, 10 is complete control) (bamyardgrass; [9]) | Barnyardgrass plant response rating (bamyardgrass; [10]) | Barnyardgrass plant response rating (bamyardgrass; [11]) | Plant response rating, S. Flatsedge (0 to 10 scale, 0 is no effect, 10 is complete control) (smallflower flatsedge; [8]) | S. Flatsedge plant response rating (0 to 10 scale, 0 is no effect, 10 is complete control) (smallflower flatsedge; [9]) | S. Flatsedge plant response rating (smallflower flatsedge; [10]) | S. Flatsedge plant response rating (smallflower flatsedge; [11]) | Plant response rating, Rice (0 to 10 scale, 0 is no effect, 10 is complete control) (rice; [8]) | Rice plant response rating (0 to 10 scale, 0 is no effect, 10 is complete control) (rice; [9]) | Rice plant response rating (rice; [10]) | Rice plant response rating (rice; [11]) | Plant response rating, Wheat (wheat; [1]) | Wheat plant response rating (wheat; [3]) | Plant response rating, Wheat (wheat; [4]) | Wheat plant response rating (wheat; [5]) | Wheat plant response rating (wheat; [6]) | Plant response rating, Wheat (wheat; [7]) | Soybean plant response rating (soybean; [5]) | Soybean plant response rating (soybean; [6]) | Plant response rating, Sugarbeets (sugar beet; [1]) | Sugarbeets plant response rating (sugar beet; [5]) | Sugarbeets plant response rating (sugar beet; [6]) | Plant response rating, Velvetleaf (velvetleaf; [1]) | Plant response rating, Velvetleaf (velvetleaf; [2]) | Velvetleaf plant response rating (velvetleaf; [5])
10: Giant foxtail plant response rating (giant foxtail; [6]) | Plant response rating, Giant foxtail (giant foxtail; [7]) | Plant response rating, Morningglory (morningglory; [4]) | Plant response rating, B. signalgrass (surinam grass; [12]) | Plant response rating, B. signalgrass (surinam grass; [13]) | B. signalgrass plant response rating (surinam grass; [12]) | B. signalgrass plant response rating (surinam grass; [13]) | Plant response rating, Crabgrass (crabgrass; [7])
6: Plant response rating, Wild oats (wild oat; [4]) | Plant response rating, Wild oats (wild oat; [7]) | Plant response rating, Blackgrass (blackgrass; [2]) | Plant response rating, Velvetleaf (velvetleaf; [4])
7: Plant response rating, Giant foxtail (giant foxtail; [2]) | Giant foxtail plant response rating (giant foxtail; [3]) | Redroot pigweed plant response rating (pigweed; [3]) | Plant response rating, Redroot pigweed (pigweed; [7]) | Plant response rating, Rape (rape; [4]) | Plant response rating, Rape (rape; [7]) | Plant response rating, Morningglory (morningglory; [2]) | Blackgrass plant response rating (0 to 10 scale) (blackgrass; Preemergence, Rate 250 g/ha) | Crabgrass plant response rating (crabgrass; [3]) | Plant response rating, Crabgrass (crabgrass; [4]) | Crabgrass plant response rating (crabgrass; [5]) | Plant response rating, Velvetleaf (velvetleaf; [7])
1: Plant response rating, Corn (corn; [7]) | Plant response rating, Rape (rape; [1]) | Rape plant response rating (rape; [5]) | B. signalgrass plant response rating (surinam grass; Rate 62 g/ha, scale 0 to 10 (0 no effect, 10 complete control))
9: Plant response rating, Giant foxtail (giant foxtail; [4]) | Giant foxtail plant response rating (giant foxtail; [5]) | Plant response rating, Blackgrass (blackgrass; [4]) | Blackgrass plant response rating (blackgrass; [7]) | Crabgrass plant response rating (crabgrass; [6])
8: Plant response rating, Redroot pigweed (pigweed; [4]) | Morningglory plant response rating (morningglory; [3]) | Blackgrass plant response rating (blackgrass; [3])
5: Wild oats plant response rating (wild oat; [3]) | Plant response rating, Giant foxtail (giant foxtail; [1]) | Plant response rating, Redroot pigweed (pigweed; [2]) | Redroot pigweed plant response rating (pigweed; [5]) | Redroot pigweed plant response rating (pigweed; [6]) | Plant response rating, Rape (rape; [2]) | Rape plant response rating (rape; [3]) | Rape plant response rating (rape; [6]) | Blackgrass plant response rating (blackgrass; [6]) | Plant response rating, Sugarbeets (sugar beet; [2]) | Sugarbeets plant response rating (sugar beet; [3]) | Plant response rating, Sugarbeets (sugar beet; [4])
4: Plant response rating, Wild oats (wild oat; [2]) | Plant response rating, Morningglory (morningglory; [7]) | Plant response rating, Blackgrass (blackgrass; [1]) | Plant response rating, Soybean (soybean; [2]) | Soybean plant response rating (soybean; [3]) | Plant response rating, Soybean (soybean; [7]) | Plant response rating, Sugarbeets (sugar beet; [7]) | Velvetleaf plant response rating (velvetleaf; [3]) | Velvetleaf plant response rating (velvetleaf; [6])
2: Blackgrass plant response rating (blackgrass; [5])
